Results on 20 molecules are retold here after patent US20240287054A1, “COMPOUNDS THAT BIND NON-CANONICAL G-QUADRUPLEX STRUCTURES AND METHODS OF MAKING AND USING THE SAME” (The U.S.A., as Represented by the Secretary, Department of …, priority 2021, published 2024).

Like-named read-outs stand apart in the source and are kept apart here.

Common to all, as to assay type: binding, human
One test addresses MYCN hairpin-G4 DNA. Kind of test: FIA using compound fluorescence (Ex 340/Em 500 nm), titration with unlabeled MYCN G4 DNA. The following applies: for Kd: 100 nM compound titrated with folded unlabeled MYCN G4. The procedure: In this study, FIA was used for validating the bindings between certain bivalent and MYCN G4 oligos. To measure the binding affinity, a solution of each compound was prepared in triplicate in a 96 well-plate (Costar, black side clear bottom), resulting in a final concentration of 100 nM (5% final DMSO in the working solution). Unlabeled MYCN G4 DNA was folded based on the above-mentioned annealing method, then added into the well plate resulting in different concentrations by a seral dilution. The plate was incubated at room temperature for 30 min, followed by centrifuging at 500 rpm for 2 minutes. The fluorescence intensity was then quantitatively recorded by a Synergy Mx microplate reader (BioTek) at Ex 340 nm/Em 500 nm. The fluorescence intensities were then normalized, and the binding affinity was calculated by fitting the curve using one-site total model in GraphPad Prism 8.3.1 software.

Test [1] deals with MYCN G4 DNA. Kind of test: Surface plasmon resonance (SPR) with immobilized biotinylated MYCN G4 DNA. The following applies: for positive binding in SPR (SNR>3): single concentration 100 μM compound. The procedure:
Surface plasmon resonance (SPR) analysis. The SPR binding assays were performed with a BIAcore 3000 (GE Healthcare) instrument. A CM5 SPR biochip was loaded into the system and primed with running buffer (10 mM Tris, pH7.0, 100 mM KCl, 0.005% Tween 20, 5% DMSO) with a flow rate of 5 μL/min. Then both Flow Cell (Fc) 1 and 2 were activated by EDC/NHS (0.4 M/0.1 M) aqueous solution for 15 min, followed with an injection of streptavidin (SA) solution (0.2 mg/mL in 10 mM sodium acetate buffer, pH4.5) for 30 minutes. After the immobilization amount of SA reached 8,000-10,000 RU, the surface was deactivated by flowing 1 M Ethanolamine aqueous solution (pH 8.5) for 10 min and regenerated with 10 mM NaOH for 2 min to remove the unbound SA. In the meantime, biotinylated MYCN G4 DNA was prepared at 5 μM in the annealing buffer and heated up to 95° C. for 5 min and slowly cooled down. After annealing, a total of 150 μL solution was injected in the Fc 2 of SPR system for 30 min to immobilize DNA onto the chip surface. The small molecule solutions were tested once the baseline was stable.
To detect the binding signal as well as the binding affinity, a higher flowing rate (25 μL/min) was used in both Fc 1 (reference) and Fc 2 (DNA). Each of the compound solution was prepared at 20× designed the concentrations in DMSO, and then diluted into non-DMSO running buffer, resulting in a final concentration of 5% DMSO. Then, a total of 50 μL compound solution was injected in Fc 1-2 flow path for 120 s for association, followed with 200 s running of buffer for dissociation. An injection of 50 μL regeneration buffer (1 M KCl) could be performed between two samples if necessary. The final binding curve was obtained by reference subtraction. To determine the binding affinity (KD), a series of diluted compound solutions were injected and KD was calculated by BIAevaluation 4.0 software (GE Healthcare) using Langmuir 1:1 binding model.
In this example, SPR binding assays were performed to analyze binding activity of representative bivalent compounds of the present disclosure. The compounds of this example included a non-canonical binder component and a G4 stacker component. A BIAcore 3000 (GE Healthcare) instrument was used. A CM5 SPR biochip was used and primed with running buffer (10 mM Tris, pH7.0, 100 mM KCl, 0.005% Tween 20, 5% DMSO). To immobilize the compounds onto the chip surface, the flow rate was set as 5 μL/min. Then the carboxylated dextran on the chip surface was activated by EDC/NHS (0.4 M/0.1 M) aqueous solution for 15 min, followed with an injection of streptavidin (SA) solution (0.2 mg/mL in 10 mM sodium acetate buffer, pH 4.5) for 30 minutes. After the immobilization amount of SA, the surface was quenched by injecting 1 M ethanolamine (EA) aqueous solution (pH 8.5) for 10 min and regenerated with 10 mM NaOH for 2 min to remove the physical adsorption. Furthermore, biotinylated MYCN G4 DNA was prepared at 5 μM in the annealing buffer and heated up to 95° C. for 5 min followed with slowly cooling down to room temperature within 1 h. After annealing, a total of 150 μL solution was injected in the Fc 2 of SPR system for 30 min to immobilize DNA onto the chip surface. The compound solutions were then tested once the baseline was stable.
To detect the binding signal as well as the binding affinity, a higher flowing rate (25 μL/min) was used in both Fc 1 (blank) and Fc 2 (target). Each of the compound solutions was prepared at 20× designed the concentrations in DMSO, and then diluted into non-DMSO running buffer, resulting in a final concentration of 5% DMSO. Then, a total of 50 μL compound solution was injected in Fc 1-2 flow path for 120 s for association, followed with 200 s running of buffer for dissociation. An injection of 50 μL regeneration buffer (1 M KCl) could be performed between two samples if necessary. The final binding curve was obtained by referencing the blank channel (Fc 1). […]

Test [2] deals with MYCN G4 DNA. Put plainly: Fluorescence intensity assay (FIA) with 5′Cy5-labeled MYCN G4 DNA. The following applies: single concentration 100 μM compound, 5′Cy5-MYCN G4. The procedure: Fluorescence intensity assay. In this disclosure, fluorescence intensity assay (FIA) was used for both validation of hit binding at a single dose and binding affinity determination. For validating hit compounds from SMM screening, 100 μM solution of each compound was prepared in triplicate in a 96 well-plate (Costar, black side clear bottom), resulting in 5% DMSO concentration. 5′Cy5-labeled MYCN G4 DNA was annealed as described above, then added into the well plate resulting in a final concentration of 100 nM. The plate was incubated shaking for 30 min, followed by centrifuging at 500 rpm for 2 minutes. The fluorescence intensity was then measured on a Synergy Mx microplate reader (BioTek) at Ex 649 nm/Em 670 nm. TMPyP4/DMSO were used as positive and negative controls, respectively. In certain examples, compounds were considered binders when a change of >10% change in fluorescence intensity was observed compared to that of negative control (DMSO solution). For binding affinity measurement, small molecule solutions were prepared as serial dilutions in DMSO. Then a final test plate was prepared by adding 5 μL small molecule solutions and 10 μL annealed DNA samples into 85 μL buffer solutions, resulting in the final small molecule concentrations from 0 to 250 μM (5% final DMSO concentration). The fluorescence intensities were normalized, and the binding affinity was calculated by fitting the curve using one-site total model in GraphPad Prism 8.3.1 software. The fluorescence titration using 3′-labeled oligonucleotides was also performed the same way.

Test [3] deals with MYCN G4 DNA (2-AP at A11). Put plainly: 2-Aminopurine (2-AP) fluorescence titration, A11-labeled MYCN G4. The following applies: 2-AP at A11 of MYCN G4. The procedure: 2-Aminopurine (2-AP) fluorescence titration. Fluorescence titrations based on 2-aminopurine labeling were performed using the protocol reported previously. Briefly, MYCN G4 oligonucleotide with a 2-AP substitution at either A11 or A18 position was annealed by heating the sample to 95° C. for 5 min and cooling down to RT slowly. The oligonucleotide with folded structure was diluted to 10 μM in Tris buffer (10 mM Tris, pH7.0, 100 mM KCl, 0.005% Tween 20) and prepared in a black 96-well plate (Costar) in triplicate as designed. Small molecules were diluted in DMSO to obtain a series of solutions with concentrations ranging from 0.1 to 5 mM, and then diluted by 20 times added into the plate (5% DMSO final concentration). The final concentration of 2-AP DNA was 1 μM in the well plate. To obtain the background fluorescence, small molecule solutions without DNA were also prepared in the same plate. After incubation for 30 min at RT, the plate was briefly centrifuged and scanned in Synergy Mx microplate reader (BioTek) with Ex 310 nm/Em 365 nm. Fluorescence signals were calculated by averaging the intensities in triplicate wells after subtracting the references. Finally, the binding signals were normalized and the KD value was determined by fitting the curve using a nonlinear sigmoidal dose-response model with a variable slope in GraphPad Prism 8.3.1 software.

[4] abbreviates: MYCN hairpin G4, SPR titration, read-out: KD by SPR.
Where [5] appears, read: MYCN G4, Langmuir 1:1 model, read-out: SPR KD.

With `COc1ccc(-c2noc(-c3ccc(NCCOCCNc4c5ccc(Cl)cc5nc5ccc(OC)cc45)nn3)n2)cc1` [B35, 6-chloro-2-methoxy-N-(2-(2-((6-(3-(4-methoxyphenyl)-1,2,4-oxadiazol-5-yl)pyridazin-3-yl)amino)ethoxy)ethyl)acridin-9-amine], the results for the Kd on MYCN hairpin-G4 DNA and at MYCN G4 DNA [1] (setting [4]) were 38 ± 5 nM and 14 ± 6 nM, respectively. In the test on MYCN hairpin-G4 DNA (FIA and SPR, MYCN HP-G4), the “fold improvement of KD compared to B32” value was greater than 10 fold.

With `COc1ccc(-c2noc(-c3ccc(NCCOCCOCCNc4c5ccc(Cl)cc5nc5ccc(OC)cc45)nn3)n2)cc1` [B38, 6-chloro-2-methoxy-N-(2-(2-(2-((6-(3-(4-methoxyphenyl)-1,2,4-oxadiazol-5-yl)pyridazin-3-yl)amino)ethoxy)ethoxy)ethyl)acridin-9-amine], the Kd at MYCN hairpin-G4 DNA is 69 ± 21 nM; at MYCN G4 DNA [1] (setting [4]), 87 ± 39 nM.

On to `c1cc(CNCCCN2CCCCCC2)n(-c2nnc(C3CCCCCC3)s2)c1` [Compound 2], for which the “positive binding in SPR (SNR>3)” value in the test on MYCN G4 DNA [1] is on record as “hits”. The “positive binding in FIA (>10% quenching)” value in the test with MYCN G4 DNA [2] is reported as “hits”.

Turning to `O=C1C(=O)C(c2ccc3c(c2)CCCC3)C1NC1CCN(Cc2ccccc2)CC1` (centres unmarked) [Compound 3], the “positive binding in SPR (SNR>3)” value in the test on MYCN G4 DNA [1] is “hits”.

Turning to `COCC(=O)c1nc2ccccc2nc1NCc1cccnc1` [Compound 5], in the test on MYCN G4 DNA [1], the “positive binding in SPR (SNR>3)” value is “hits”. The “positive binding in FIA (>10% quenching)” value in the test on MYCN G4 DNA [2] is recorded as “hits”.

On to `Cc1c(C(=O)O)sc2ncnc(NCCCN3CCN(c4ccccc4)CC3)c12` [Compound 9], for which the “positive binding in SPR (SNR>3)” value in the test on MYCN G4 DNA [1] is listed as “hits”.

Consider `Cc1ccc(Nc2cc(C)nc(N3CCN(C(=O)CCc4ccccc4)CC3)n2)cc1` [Compound 10], for which the “positive binding in FIA (>10% quenching)” value with MYCN G4 DNA [2] is reported as “hits”.

For the molecule `COc1ccc2c(c1)sc1nc(-c3ccc(OC)c(OC)c3)c(NC(C)(C)C)n12` [Compound 11], in the test on MYCN G4 DNA [2], the “positive binding in FIA (>10% quenching)” value is given as “hits”.

For the molecule `CCOc1ccc(CNC(=O)c2cnc(N3CCSCC3)nc2N)cc1` [Compound 12], the “positive binding in FIA (>10% quenching)” value in the test with MYCN G4 DNA [2] is “hits”.

As for `CCCNc1cc(N2CCCC(CCC(=O)N3CCN(c4ncccn4)CC3)C2)ncn1` (centres unmarked) [Compound 13], the “positive binding in SPR (SNR>3)” value in the test with MYCN G4 DNA [1] is reported as “hits”.

Turning to `CC(C)COCC(O)CN1CCN(c2ccc(NC(=O)c3cccs3)cn2)CC1` (centres unmarked) [Compound 14], the “positive binding in FIA (>10% quenching)” value in the test with MYCN G4 DNA [2] is on record as “hits”.

As to `COCCNc1ccc(-c2nc(-c3ccc(OC)cc3)no2)nn1` [MY-3], the results for the equilibrium dissociation constant (Kd) (at MYCN G4 DNA [1] (setting [5]); in test [3]) were 5900 ± 2700 nM and 1200 ± 600 nM, respectively.

Take `COc1ccc(-c2noc(-c3ccc(NCCCN4CCN(C)CC4)nn3)n2)cc1` [MY-5, 6-(3-(4-methoxyphenyl)-1,2,4-oxadiazol-5-yl)-N-(3-(4-methylpiperazin-1-yl)propyl)pyridazin-3-amine]: the Kd came out at 1400 ± 200 nM on MYCN G4 DNA [1] (setting [5]) and 1000 ± 100 nM in test [3].

As for `COc1ccc(-c2noc(-c3ccc(NCCN(C)C)nn3)n2)cc1` [MY-6], the values for the Kd (on MYCN G4 DNA [1] (setting [5]); in test [3]) were 4900 ± 2600 nM and 1000 ± 200 nM, respectively.

As for `COc1ccc(-c2noc(-c3ccc(NCCC(N)=O)nn3)n2)cc1` [MY-7], the Kd was found to be 23500 ± 4700 nM on MYCN G4 DNA [1] (setting [5]) and 13200 ± 4600 nM in test [3].

As for `COc1ccc(-c2noc(-c3ccc(NCCCN4CCC(C)CC4)nn3)n2)cc1` [MY-10], at MYCN G4 DNA [1] (setting [5]), the Kd came out at 2200 ± 600 nM. Also, in test [3], the “A11 2AP KD” value is on record as “sub-micromolar binders” and the Kd came out at 700 ± 200 nM.

For the molecule `COc1ccc(-c2noc(-c3ccc(NCCCN(C)C)nn3)n2)cc1` [MY-11], the figures for the Kd (at MYCN G4 DNA [1] (setting [5]); in test [3]) were 9200 ± 1900 nM and 1200 ± 200 nM, respectively.

As for `COc1ccc(-c2noc(-c3ccc(NCCN4CCCC4)nn3)n2)cc1` [MY-12], on MYCN G4 DNA [1] (setting [5]), the equilibrium dissociation constant (Kd) is greater than 100000 nM.

For `COc1ccc(-c2noc(-c3ccc(NCCN4CCOCC4)nn3)n2)cc1` [MY-13, 6-(3-(4-methoxyphenyl)-1,2,4-oxadiazol-5-yl)-N-(2-morpholinoethyl)pyridazin-3-amine], the Kd at MYCN G4 DNA [1] (setting [5]) is 8200 ± 2400 nM; in test [3], 3200 ± 700 nM.

In the case of `COc1ccc(-c2noc(-c3ccc(NCCN4CCN(C)CC4)nn3)n2)cc1` [MY-14], the Kd at MYCN G4 DNA [1] (setting [5]) was 3600 ± 1000 nM. Also, in test [3], the “A11 2AP KD” value is listed as “sub-micromolar binders” and the Kd was 900 ± 200 nM.
